Laboratory results published in PubChem BioAssay AID330 (DTP/NCI, 2004).
Values joined by “and” are separate entries in the source; they are usually repeats but may differ in a detail not shown here. Equal entries are not always repeated. Inconclusive results and toxic doses are left out. Rule for the calls: active = survival T/C of 150% or more; inactive = T/C below 125% in these data.

Test system: P388 leukemia ip, CD2F1 mice, survival T/C
Assay: NCI In Vivo Anticancer Drug Screen. Data for tumor model P388 Leukemia (intraperitoneal) in CD2F1 (CDF1) mice
Details: endpoint: median survival time, higher = longer survival
Summary of the method: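 Mice carrying the transplanted tumor received test compound or vehicle. Survival was recorded in each group, and the value is the treated-group measurement divided by that of the vehicle-treated control group.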

[1] = dose: 50.0 mg/kg/injection, schedule: Q01DX009 (ip), vehicle: saline with Tween-80
[2] = dose: 200.0 mg/kg/injection, schedule: Q01DX009 (ip), vehicle: saline with Tween-80
[3] = dose: 25.0 mg/kg/injection, schedule: Q01DX009 (ip), vehicle: other
[4] = dose: 60.0 mg/kg/injection, schedule: Q01DX005 (ip), vehicle: saline with Tween-80
[5] = dose: 120.0 mg/kg/injection, schedule: Q01DX005 (ip), vehicle: saline with Tween-80
[6] = dose: 240.0 mg/kg/injection, schedule: Q01DX005 (ip), vehicle: saline with Tween-80
[7] = dose: 100.0 mg/kg/injection, schedule: Q01DX009 (ip), vehicle: saline with Tween-80
[8] = dose: 12.5 mg/kg/injection, schedule: Q01DX005 (ip), vehicle: saline with Tween-80
[9] = dose: 25.0 mg/kg/injection, schedule: Q01DX005 (ip), vehicle: saline with Tween-80
[10] = dose: 50.0 mg/kg/injection, schedule: Q01DX005 (ip), vehicle: saline with Tween-80
[11] = dose: 60.0 mg/kg/injection, schedule: Q01DX005 (ip), vehicle: Klucel (hydroxypropylcellulose) (HPC)
[12] = dose: 120.0 mg/kg/injection, schedule: Q01DX005 (ip), vehicle: Klucel (hydroxypropylcellulose) (HPC)
[13] = dose: 50.0 mg/kg/injection, schedule: Q01DX005 (ip), vehicle: saline
[14] = dose: 15.0 mg/kg/injection, schedule: Q01DX005 (ip), vehicle: saline with Tween-80
[15] = dose: 30.0 mg/kg/injection, schedule: Q01DX005 (ip), vehicle: saline with Tween-80

Measured: T/C

CCC(=O)Oc1ccc(C2N(Cc3ccc(N(C)C)cc3)CCCN2Cc2ccc(N(C)C)cc2)cc1
inactive: [1] 90 % of control | [2] 90 % of control

O=c1sc(N=Nc2ccccc2)nn1-c1ccccc1
inactive: dose: 50.0 mg/kg/injection, schedule: Q04DX003 (ip), vehicle: other 90 % of control | dose: 100.0 mg/kg/injection, schedule: Q04DX003 (ip), vehicle: other 95 % of control | dose: 200.0 mg/kg/injection, schedule: Q04DX003 (ip), vehicle: other 95 % of control

CCOCC(=O)c1ccc2c(O)c3c(c(O)c2c1)C(=O)c1cccc(OC)c1C3=O
inactive: dose: 1.56 mg/kg/injection, schedule: Q01DX009 (ip), vehicle: other 105 % of control | dose: 3.13 mg/kg/injection, schedule: Q01DX009 (ip), vehicle: other 104 % of control | dose: 6.25 mg/kg/injection, schedule: Q01DX009 (ip), vehicle: other 103 % of control | dose: 12.5 mg/kg/injection, schedule: Q01DX009 (ip), vehicle: other 106 % of control | [3] 108 % of control

[Cu+2].[O-]/N=C/c1ccc(O)c(O)c1[O-].[O-]/N=C/c1ccc(O)c(O)c1[O-]
inactive: [4] 91 % of control | [5] 87 % of control | [6] 89 % of control

N#Cc1ccc(OCCCCCOc2ccc(C#N)cc2)cc1
inactive: dose: 25.0 mg/kg/injection, schedule: Q01DX009 (ip), vehicle: saline with Tween-80 108 % of control | [1] 100 % of control | [7] 97 % of control | [2] 99 % of control

CC(C)CCCC(C)CCOCCN1CCCCC1 (centres undefined)
inactive: [8] 100 % of control | [9] 113 % of control | [10] 109 % of control and 114 % of control

O=[N+]([O-])c1ccc(Sc2cccc[n+]2[O-])c2nonc12
inactive: dose: 1.87 mg/kg/injection, schedule: Q01DX009 (ip), vehicle: Klucel (hydroxypropylcellulose) (HPC) 107 % of control | dose: 3.75 mg/kg/injection, schedule: Q01DX009 (ip), vehicle: Klucel (hydroxypropylcellulose) (HPC) 99 % of control | dose: 7.5 mg/kg/injection, schedule: Q01DX009 (ip), vehicle: Klucel (hydroxypropylcellulose) (HPC) 101 % of control

COc1ccc2c3c1OC1C(OC)(OC)C=CC4(Cl)[C@@H](C2)N(C)CC[C@]314 (some centres undefined)
inactive: [11] 96 % of control | [12] 96 % of control | dose: 240.0 mg/kg/injection, schedule: Q01DX005 (ip), vehicle: Klucel (hydroxypropylcellulose) (HPC) 102 % of control

CC(OP(=O)(O)O)C(N)C(=O)O (centres undefined)
inactive: [13] 97 % of control | dose: 100.0 mg/kg/injection, schedule: Q01DX005 (ip), vehicle: saline 93 % of control | dose: 200.0 mg/kg/injection, schedule: Q01DX005 (ip), vehicle: saline 98 % of control

N#CCCCOCCOCCOCC(O)C(O)COCCOCCOCCCC#N (centres undefined)
inactive: dose: 25.0 mg/kg/injection, schedule: Q01DX005 (ip), vehicle: suspension in saline 95 % of control | dose: 50.0 mg/kg/injection, schedule: Q01DX005 (ip), vehicle: suspension in saline 99 % of control | dose: 100.0 mg/kg/injection, schedule: Q01DX005 (ip), vehicle: suspension in saline 96 % of control | dose: 200.0 mg/kg/injection, schedule: Q01DX005 (ip), vehicle: suspension in saline 98 % of control

Cc1ccc(C(=O)C2(c3ccc(C)cc3)CCCCC2)cc1
inactive: dose: 50.0 mg/kg/injection, schedule: Q04DX002 (ip), vehicle: Klucel (hydroxypropylcellulose) (HPC) 91 % of control | dose: 100.0 mg/kg/injection, schedule: Q04DX002 (ip), vehicle: Klucel (hydroxypropylcellulose) (HPC) 90 % of control | dose: 200.0 mg/kg/injection, schedule: Q04DX002 (ip), vehicle: Klucel (hydroxypropylcellulose) (HPC) 95 % of control | dose: 400.0 mg/kg/injection, schedule: Q04DX002 (ip), vehicle: Klucel (hydroxypropylcellulose) (HPC) 91 % of control

CC(C)(C)C1=CC(=O)C(=O)C(C(C)(C)C)=C1
inactive: [3] 101 % of control | dose: 50.0 mg/kg/injection, schedule: Q01DX009 (ip), vehicle: other 108 % of control | dose: 100.0 mg/kg/injection, schedule: Q01DX009 (ip), vehicle: other 108 % of control

CSC(=S)N/N=C(\C)c1cccc(C)n1
inactive: dose: 7.5 mg/kg/injection, schedule: Q01DX005 (ip), vehicle: saline with Tween-80 100 % of control | [14] 102 % of control | [15] 105 % of control | [4] 100 % of control | [5] 87 % of control | [6] 113 % of control

Cc1ccc2c(c1)NC(=S)N=S2(C)=O (centres undefined)
inactive: [1] 95 % of control | [7] 93 % of control | [2] 102 % of control

CCN(CC)CCNc1ccc(N=Nc2cnc3ccccc3c2)c2ccccc12
inactive: dose: 12.5 mg/kg/injection, schedule: Q01DX009 (ip), vehicle: Klucel (hydroxypropylcellulose) (HPC) 110 % of control | dose: 12.5 mg/kg/injection, schedule: Q04DX003 (ip), vehicle: Klucel (hydroxypropylcellulose) (HPC) 109 % of control | dose: 25.0 mg/kg/injection, schedule: Q01DX009 (ip), vehicle: Klucel (hydroxypropylcellulose) (HPC) 115 % of control | dose: 25.0 mg/kg/injection, schedule: Q04DX003 (ip), vehicle: Klucel (hydroxypropylcellulose) (HPC) 100 % of control | dose: 50.0 mg/kg/injection, schedule: Q01DX009 (ip), vehicle: Klucel (hydroxypropylcellulose) (HPC) 115 % of control | dose: 50.0 mg/kg/injection, schedule: Q04DX003 (ip), vehicle: Klucel (hydroxypropylcellulose) (HPC) 100 % of control

NC(=S)N/N=C/c1ccc(-c2ccccc2)cc1
inactive: dose: 12.5 mg/kg/injection, schedule: Q04DX003 (ip), vehicle: saline with Tween-80 110 % of control | dose: 25.0 mg/kg/injection, schedule: Q04DX003 (ip), vehicle: saline with Tween-80 120 % of control | dose: 50.0 mg/kg/injection, schedule: Q04DX003 (ip), vehicle: saline with Tween-80 100 % of control

C/C(=N/N=C(N)N)c1cnc(N/N=C(\C)c2cnc(NN)nc2C)nc1C
inactive: dose: 7.5 mg/kg/injection, schedule: Q01DX005 (ip), vehicle: saline 103 % of control | dose: 15.0 mg/kg/injection, schedule: Q01DX005 (ip), vehicle: saline 94 % of control | dose: 30.0 mg/kg/injection, schedule: Q01DX005 (ip), vehicle: saline 97 % of control

C=c1cc2c(cc1=C)C(=O)c1ccccc1C2=O
inactive: [14] 89 % of control | [15] 90 % of control | [4] 86 % of control and 91 % of control | [6] 89 % of control

CC(C)CC(Br)C(=O)NCC(=O)O (centres undefined)
inactive: dose: 100.0 mg/kg/injection, schedule: Q04DX003 (ip), vehicle: saline with Tween-80 104 % of control | dose: 200.0 mg/kg/injection, schedule: Q04DX003 (ip), vehicle: saline with Tween-80 100 % of control | dose: 400.0 mg/kg/injection, schedule: Q04DX003 (ip), vehicle: saline with Tween-80 104 % of control

c1ccc(NN=Nc2ncnc3nc[nH]c23)cc1
inactive: [8] 106 % of control | [9] 111 % of control | [10] 102 % of control and 115 % of control

COc1nc(N(CCO)c2ccccc2)nc(N(CCO)c2ccccc2)n1
inactive: [10] 96 % of control | dose: 100.0 mg/kg/injection, schedule: Q01DX005 (ip), vehicle: saline with Tween-80 93 % of control | dose: 200.0 mg/kg/injection, schedule: Q01DX005 (ip), vehicle: saline with Tween-80 92 % of control

CC(=O)[C@]1(O)Cc2c(O)c3c(c(O)c2[C@@H](OC2CC(N)C(O)C(C)O2)C1)C(=O)c1c(OCC(C)C)cccc1C3=O (some centres undefined)
inactive: dose: 3.13 mg/kg/injection, schedule: Q04DX003 (ip), vehicle: water 107 % of control and 110 % of control | dose: 6.25 mg/kg/injection, schedule: Q04DX003 (ip), vehicle: water 105 % of control and 119 % of control | dose: 12.5 mg/kg/injection, schedule: Q04DX003 (ip), vehicle: water 101 % of control | dose: 25.0 mg/kg/injection, schedule: Q04DX003 (ip), vehicle: water 121 % of control | dose: 50.0 mg/kg/injection, schedule: Q04DX003 (ip), vehicle: water 101 % of control and 89 % of control

Cc1ccc(NCN2C(=O)c3ccccc3C2=O)c(C)n1
inactive: [11] 92 % of control | [12] 89 % of control

CC(C)CC(C(=O)O)N(CC(=O)O)CC(=O)O (centres undefined)
inactive: dose: 12.5 mg/kg/injection, schedule: Q01DX005 (ip), vehicle: saline 97 % of control | dose: 25.0 mg/kg/injection, schedule: Q01DX005 (ip), vehicle: saline 87 % of control | [13] 98 % of control
